System: OV2944-HM-1 cells
Assay: Antitumor effect in mouse model of spontaneous metastasis (OV2944-HM-1)
Assay type: in vivo
Conditions: 35 days after transplantation, Example 27 3 mg/kg oral, mIFN-α 5×10^4 U intradermal
Method: OV2944-HM-1 cells (obtained from Hiroshima University) derived from mouse ovarian cancer that is highly metastatic to the lymph nodes were intradermally transplanted to the buttocks of 6-week-old B6C3F1 female mice (Charles River Japan, Inc.) in amounts of 1×10^6 cells/0.05 ml/mouse. Ten days after the transplantation, the primary tumor was excised under Nembutal anaesthesia. Adhesives (Aron Alpha) were applied to the excised portions, and the stumps were sewed up with wound clips. The next day, body weights were measured, and they were divided into 3 groups (each group comprising 6 mice) in such a manner that the average body weights among groups were substantially the same. Vehicles (aqueous solutions of 0.5% CMC-Na) and the compound of Example 27 (3 mg/kg) were forcibly administered orally using an oral Sonde (10 ml/kg). Also, 5×10^4 U/0.1 ml/mouse of mIFN-α was intradermally administered through their backs. Administration was carried out 5 times every 4 days. Regional lymph nodes (mouse cervical, brachium, axillary cavity) were extirpated 35 days after the transplantation, and their wet weights were measured. Simultaneously, lungs were extirpated to visually inspect the metastasis. Also, significant difference was examined in accordance with Steel's multiple comparison. The SAS system for Windows Release 8.01 (SAS Institute Inc., Cary, N.C., U.S.A.) was used for the examination.
Thus, pulmonary metastasis was examined.

CCCCNc1nc(N)c2nc(O)n(Cc3ccc(C)nc3)c2n1 [Example 27, 2-Butylamino-8-hydroxy-9-(6-methyl-3-pyridylmethyl)adenine]
pulmonary metastasis (visual inspection), in words: not observed at all
lymph node metastasis (wet weight of metastasis lymph nodes vs vehicle group) (B6C3F1 mice, 5 times every 4 days): smaller than those attained from the group to which vehicles were administered
The number of mice which exhibited pulmonary metastasis in 6 mice (visual inspection): 0

Reference: US7521454B2 (Dainippon Sumitomo Pharma Co., Ltd., priority 2001, dated 2009)
